Source: PubChem BioAssay AID330 (DTP/NCI, 2004)
Where “and” joins values, the source holds several entries; their conditions need not be identical. Equal entries are not always repeated. Inconclusive results and toxic doses are left out.

Test system: P388 leukemia ip, CD2F1 mice, survival T/C
Experiment: NCI In Vivo Anticancer Drug Screen. Data for tumor model P388 Leukemia (intraperitoneal) in CD2F1 (CDF1) mice
Conditions: endpoint: median survival time, higher = longer survival
In short: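 Mice carrying the transplanted tumor received test compound or vehicle. Survival was recorded in each group, and the value is the treated-group measurement divided by that of the vehicle-treated control group.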

[1] = dose: 12.5 mg/kg/injection, schedule: Q01DX009 (ip), vehicle: saline with Tween-80
[2] = dose: 25.0 mg/kg/injection, schedule: Q01DX009 (ip), vehicle: saline with Tween-80

## COC1=C(N)C(=O)c2nc(-c3nc(C(=O)O)c(C)c(-c4ccc(OC)c(OC)c4O)c3N)ccc2C1=O
dose: 0.01 mg/kg/injection, schedule: Q01DX009 (ip), vehicle: other
  T/C: 93 % of control
dose: 0.01 mg/kg/injection, schedule: Q## X024 (ip), vehicle: other
  T/C: 110 % of control
dose: 0.02 mg/kg/injection, schedule: Q01DX009 (ip), vehicle: DMSO
  T/C: 101 % of control
dose: 0.02 mg/kg/injection, schedule: Q## X016 (ip), vehicle: other
  T/C: 110 % of control
dose: 0.02 mg/kg/injection, schedule: Q## X024 (ip), vehicle: other
  T/C: 100 % of control
dose: 0.03 mg/kg/injection, schedule: Q01DX009 (ip), vehicle: distilled water + Tween-80
  T/C: 117 % of control and 97 % of control
dose: 0.03 mg/kg/injection, schedule: Q01DX009 (ip), vehicle: other
  T/C: 95 % of control
dose: 0.04 mg/kg/injection, schedule: Q01DX009 (ip), vehicle: DMSO
  T/C: 123 % of control
dose: 0.05 mg/kg/injection, schedule: Q01DX001 (ip), vehicle: other
  T/C: 120 % of control
dose: 0.05 mg/kg/injection, schedule: Q01DX009 (ip), vehicle: DMSO
  T/C: 119 % of control
dose: 0.05 mg/kg/injection, schedule: Q## X008 (ip), vehicle: other
  T/C: 120 % of control
dose: 0.05 mg/kg/injection, schedule: Q## X016 (ip), vehicle: other
  T/C: 110 % of control
dose: 0.05 mg/kg/injection, schedule: Q## X024 (ip), vehicle: other
  T/C: 110 % of control
dose: 0.06 mg/kg/injection, schedule: Q01DX009 (ip), vehicle: DMSO
  T/C: 124 % of control
dose: 0.08 mg/kg/injection, schedule: Q01DX009 (ip), vehicle: DMSO
  T/C: 110 % of control
dose: 0.1 mg/kg/injection, schedule: Q01DX001 (ip), vehicle: other
  T/C: 120 % of control
dose: 0.1 mg/kg/injection, schedule: Q01DX009 (oral), vehicle: other
  T/C: 110 % of control
dose: 0.1 mg/kg/injection, schedule: Q## X008 (ip), vehicle: other
  T/C: 120 % of control
dose: 0.1 mg/kg/injection, schedule: Q## X016 (ip), vehicle: other
  T/C: 110 % of control
dose: 0.12 mg/kg/injection, schedule: Q01DX009 (ip), vehicle: other
  T/C: 120 % of control
dose: 0.15 mg/kg/injection, schedule: Q01DX009 (ip), vehicle: dioxane
  T/C: 123 % of control
dose: 0.16 mg/kg/injection, schedule: Q01DX009 (ip), vehicle: distilled water + Tween-80
  T/C: 123 % of control
dose: 0.16 mg/kg/injection, schedule: Q01DX009 (ip), vehicle: other
  T/C: 102 % of control and 103 % of control
dose: 0.2 mg/kg/injection, schedule: Q01DX001 (ip), vehicle: other
  T/C: 120 % of control
dose: 0.2 mg/kg/injection, schedule: Q01DX009 (oral), vehicle: other
  T/C: 110 % of control
dose: 0.2 mg/kg/injection, schedule: Q## X008 (ip), vehicle: other
  T/C: 120 % of control
dose: 0.2 mg/kg/injection, schedule: Q## X016 (ip), vehicle: other
  T/C: 120 % of control
dose: 0.32 mg/kg/injection, schedule: Q01DX009 (ip), vehicle: distilled water + Tween-80
  T/C: 101 % of control and 94 % of control
dose: 0.4 mg/kg/injection, schedule: Q01DX009 (oral), vehicle: other
  T/C: 110 % of control
dose: 0.8 mg/kg/injection, schedule: Q01DX001 (oral), vehicle: other
  T/C: 100 % of control
dose: 0.8 mg/kg/injection, schedule: Q01DX009 (oral), vehicle: other
  T/C: 100 % of control
dose: 1.6 mg/kg/injection, schedule: Q01DX001 (oral), vehicle: other
  T/C: 100 % of control
dose: 2.5 mg/kg/injection, schedule: Q01DX009 (ip), vehicle: saline with Tween-80
  T/C: 95 % of control
dose: 3.2 mg/kg/injection, schedule: Q01DX001 (oral), vehicle: other
  T/C: 90 % of control
dose: 12.5 mg/kg/injection, schedule: Q01DX009 (ip), vehicle: distilled water + Tween-80
  T/C: 103 % of control
dose: 25.0 mg/kg/injection, schedule: Q01DX009 (ip), vehicle: distilled water + Tween-80
  T/C: 110 % of control
dose: 50.0 mg/kg/injection, schedule: Q01DX009 (ip), vehicle: distilled water + Tween-80
  T/C: 119 % of control
dose: 200.0 mg/kg/injection, schedule: Q01DX009 (ip), vehicle: distilled water + Tween-80
  T/C: 119 % of control
dose: 25.0 micrograms/kg/injection, schedule: Q01DX009 (ip), vehicle: other
  T/C: 120 % of control
dose: 400.0 micrograms/kg/injection, schedule: Q01DX009 (ip), vehicle: other
  T/C: 114 % of control

## O=C1C2CCCC1C(c1ccc(Cl)cc1)NC2c1ccc(Cl)cc1 (stereo unspecified)
dose: 100.0 mg/kg/injection, schedule: Q04DX003 (ip), vehicle: saline
  T/C: 103 % of control
dose: 200.0 mg/kg/injection, schedule: Q04DX003 (ip), vehicle: saline
  T/C: 103 % of control
dose: 400.0 mg/kg/injection, schedule: Q04DX003 (ip), vehicle: saline
  T/C: 96 % of control

## CS(=O)(=O)OCCN(CCOS(C)(=O)=O)c1ccccc1
dose: 1.56 mg/kg/injection, schedule: Q04DX003 (ip), vehicle: saline
  T/C: 109 % of control
dose: 3.13 mg/kg/injection, schedule: Q04DX003 (ip), vehicle: saline
  T/C: 104 % of control
dose: 6.25 mg/kg/injection, schedule: Q01DX009 (ip), vehicle: saline with Tween-80
  T/C: 154 % of control
dose: 6.25 mg/kg/injection, schedule: Q04DX003 (ip), vehicle: saline
  T/C: 122 % of control
[1]
  T/C: 200 % of control
[2]
  T/C: 181 % of control
dose: 25.0 mg/kg/injection, schedule: Q01DX009 (ip), vehicle: saline
  T/C: 204 % of control
dose: 25.0 mg/kg/injection, schedule: Q04DX003 (ip), vehicle: saline
  T/C: 204 % of control
dose: 50.0 mg/kg/injection, schedule: Q01DX009 (ip), vehicle: saline
  T/C: 90 % of control

## CC(=O)Nc1ccc2oc3ccc(Cl)cc3c(=O)c2c1
dose: 50.0 mg/kg/injection, schedule: Q01DX005 (ip), vehicle: Klucel (hydroxypropylcellulose) (HPC)
  T/C: 98 % of control
dose: 100.0 mg/kg/injection, schedule: Q01DX005 (ip), vehicle: Klucel (hydroxypropylcellulose) (HPC)
  T/C: 92 % of control
dose: 200.0 mg/kg/injection, schedule: Q01DX005 (ip), vehicle: Klucel (hydroxypropylcellulose) (HPC)
  T/C: 91 % of control

## COc1cccc2c1C(=O)c1c(O)c3c(c(O)c1C2=O)CC(O)(C(C)=O)CC3OC1CC(NC2CCOCC2)C(O)C(C)O1 (stereo unspecified)
dose: 3.12 mg/kg/injection, schedule: Q04DX003 (ip), vehicle: water
  T/C: 101 % of control
dose: 6.25 mg/kg/injection, schedule: Q04DX003 (ip), vehicle: water
  T/C: 101 % of control and 107 % of control
dose: 12.5 mg/kg/injection, schedule: Q04DX003 (ip), vehicle: water
  T/C: 102 % of control and 107 % of control
dose: 25.0 mg/kg/injection, schedule: Q04DX003 (ip), vehicle: water
  T/C: 118 % of control
dose: 50.0 mg/kg/injection, schedule: Q04DX003 (ip), vehicle: water
  T/C: 120 % of control
dose: 200.0 mg/kg/injection, schedule: Q04DX003 (ip), vehicle: water
  T/C: 111 % of control

## O=c1[nH]c(=O)c2cc(Cl)cc(Cl)c2[nH]1
dose: 50.0 mg/kg/injection, schedule: Q01DX001 (ip), vehicle: saline with Tween-80
  T/C: 90 % of control
dose: 100.0 mg/kg/injection, schedule: Q01DX001 (ip), vehicle: saline with Tween-80
  T/C: 90 % of control
dose: 200.0 mg/kg/injection, schedule: Q01DX001 (ip), vehicle: saline with Tween-80
  T/C: 90 % of control

## O=c1n(CC2CC3(Cl)C(Cl)=C(Cl)C2(Cl)C3(Cl)Cl)c(=O)n(CC2CC3(Cl)C(Cl)=C(Cl)C2(Cl)C3(Cl)Cl)c(=O)n1CC1CC2(Cl)C(Cl)=C(Cl)C1(Cl)C2(Cl)Cl (stereo unspecified)
[1]
  T/C: 101 % of control
[2]
  T/C: 95 % of control
dose: 50.0 mg/kg/injection, schedule: Q01DX009 (ip), vehicle: saline with Tween-80
  T/C: 87 % of control and 95 % of control
dose: 200.0 mg/kg/injection, schedule: Q01DX009 (ip), vehicle: saline with Tween-80
  T/C: 97 % of control

## C/C(=N\NC(=O)c1ccncc1)c1cccc(/C(C)=N/NC(=O)c2ccncc2)n1.CC(=O)[O-].CC(=O)[O-].[Zn+2]
dose: 12.5 mg/kg/injection, schedule: Q01DX005 (ip), vehicle: saline with Tween-80
  T/C: 110 % of control
dose: 25.0 mg/kg/injection, schedule: Q01DX005 (ip), vehicle: saline with Tween-80
  T/C: 104 % of control
dose: 50.0 mg/kg/injection, schedule: Q01DX005 (ip), vehicle: saline with Tween-80
  T/C: 88 % of control and 93 % of control
